In assay [1] the target is Dihydroorotate dehydrogenase (quinone), mitochondrial (Homo sapiens, UniProt Q02127). As to the kind of experiment: Inhibition of human recombinant dihydroorotate dehydrogenase (DHODase).
Assay [2] can be described thus: Concentration required to inhibit proliferation in a mixture of human lymphocytes using mixed lymphocyte reaction test. It counts as functional, cell-based.

A word on the Ki: it is the equilibrium dissociation constant of an inhibitor or competing ligand from its target. What is called IC50 is the concentration that inhibits the measured activity by half.

Dihydroorotate dehydrogenase (quinone), mitochondrial, sequence (Q02127 whole entry): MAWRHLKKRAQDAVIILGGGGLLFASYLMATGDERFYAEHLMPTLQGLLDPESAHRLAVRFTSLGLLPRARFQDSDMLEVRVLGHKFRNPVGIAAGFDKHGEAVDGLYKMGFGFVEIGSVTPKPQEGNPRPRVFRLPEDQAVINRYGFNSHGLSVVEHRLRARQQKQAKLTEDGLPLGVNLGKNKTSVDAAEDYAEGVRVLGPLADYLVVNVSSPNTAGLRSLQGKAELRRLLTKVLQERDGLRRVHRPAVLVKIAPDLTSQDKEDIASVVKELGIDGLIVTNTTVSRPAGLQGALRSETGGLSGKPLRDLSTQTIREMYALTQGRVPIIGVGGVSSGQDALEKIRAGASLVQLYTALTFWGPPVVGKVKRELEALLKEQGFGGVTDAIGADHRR

As to `O=C(O)c1c2c(nc3ccc(F)cc13)-c1cc(-c3ccccc3)ccc1CC2`, the Ki in assay [1] is greater than 1000 nM. For the same compound, the IC50 in assay [2] was greater than 5000 nM.

Consider `Cc1cccc(-c2ccc3c(c2)CCc2c-3nc3ccc(F)cc3c2C(=O)O)c1`, for which the Ki in assay [1] came out at 59 nM. For the same compound, the 50% inhibitory concentration (IC50) in assay [2] stood at 60 nM. The matching figures for `Cc1ccc(-c2ccc3c(c2)CSc2c-3nc3ccc(F)cc3c2C(=O)O)cc1`: 218 nM and 350 nM. As to `Cc1ccc(-c2ccc3c(c2)SCc2c-3nc3ccc(F)cc3c2C(=O)O)cc1`, the Ki in assay [1] is 13 nM. The IC50 in assay [2] stood at 50 nM.

On to `O=C(O)c1c2c(nc3ccc(F)cc13)-c1cccc(Oc3ccccc3)c1CC2`, for which, in assay [1], the Ki turned out to be 962 nM. In addition, in assay [2], the IC50 was greater than 5000 nM. As to `O=C(O)c1c2c(nc3ccc(F)cc13)-c1ccc(-c3ccsc3)cc1CC2`, the Ki in assay [1] worked out at 52 nM. Moreover, the IC50 in assay [2] came to 170 nM. The corresponding values for `Cc1cccc(-c2ccc3c(n2)CCc2c-3nc3ccc(F)cc3c2C(=O)O)c1` are 81 nM and 180 nM. The matching figures for `O=C(O)c1c2c(nc3ccc(F)cc13)-c1cnc(-c3ccccc3)nc1CC2`: 380 nM and 600 nM. The corresponding values for `O=C(O)c1c2c(nc3ccc(F)cc13)-c1ccc(-c3ccccc3)cc1[S+]([O-])C2` (stereo unspecified) are 206 nM and 240 nM. With `COc1ccc(-c2ccc3c(c2)CCc2c-3nc3ccc(F)cc3c2C(=O)O)cc1`, the Ki in assay [1] was found to be 55 nM. In addition, the IC50 in assay [2] stood at 60 nM.

On to `Cc1ccccc1-c1ccc2c(c1)CCc1c-2nc2ccc(F)cc2c1C(=O)O`, for which the Ki in assay [1] came out at 10 nM. The concentration for half-maximal inhibition (IC50) in assay [2] amounted to 30 nM. The matching figures for `Cc1cccc(-c2ccc3c(c2)SCc2c-3nc3ccc(F)cc3c2C(=O)O)c1`: 37 nM and 14 nM. Take `O=C(O)c1c2c(nc3ccc(F)cc13)-c1ccc(-c3ccccc3)cc1OC2`: in assay [1], the Ki was found to be 48 nM. The IC50 in assay [2] came out at 220 nM. The matching figures for `O=C(O)c1c2c(nc3ccc(F)cc13)-c1ccc(-c3ccccc3)cc1CS2`: 170 nM and 310 nM. The corresponding values for `COc1cccc(-c2ccc3c(n2)CCc2c-3nc3ccc(F)cc3c2C(=O)O)c1` are 160 nM and 300 nM. The corresponding values for `O=C(O)c1c2c(nc3ccc(F)cc13)-c1ccc(-c3nccs3)cc1CC2` are greater than 180 nM and greater than 5000 nM.

For `O=C(O)c1c2c(nc3ccc(F)cc13)-c1ccc(-c3ccccc3)cc1CC2`, the Ki in assay [1] came to 8.3 nM. For the same compound, the IC50 in assay [2] is 30 nM. The corresponding values for `O=C(O)c1c2c(nc3ccc(C(F)(F)F)cc13)-c1ccc(-c3ccccc3)cc1CC2` are 31 nM and 52 nM. For the compound `O=C(O)c1c2c(nc3ccc(F)cc13)-c1ccc(-c3ccccc3)cc1SC2`, the Ki in assay [1] was found to be 17 nM. In addition, the IC50 in assay [2] stood at 16 nM. The corresponding values for `O=C(O)c1c2c(nc3ccc(F)cc13)-c1sc(-c3ccccc3)cc1CC2` are greater than 182 nM and greater than 10000 nM. On to `Cc1cccc(-c2ccc3c(c2)CSc2c-3nc3ccc(F)cc3c2C(=O)O)c1`, for which the Ki in assay [1] stood at 135 nM. In addition, the IC50 in assay [2] was 170 nM. The matching figures for `O=C(O)c1c2c(nc3ccc(F)cc13)-c1ccc(-c3ccccc3F)cc1CC2`: 34 nM and 40 nM. The corresponding values for `COc1cccc(-c2ccc3c(c2)CCc2c-3nc3ccc(F)cc3c2C(=O)O)c1` are 25 nM and 10 nM. Turning to `O=C(O)c1c2c(nc3ccc(F)cc13)-c1ccc(-c3ccccc3)cc1S(=O)(=O)C2`, in assay [1], the Ki worked out at 139 nM. In addition, the IC50 in assay [2] came to 8500 nM. The corresponding values for `O=C(O)c1c2c(nc3ccc(F)cc13)-c1cccc(-c3ccccc3)c1CC2` are 300 nM and greater than 5000 nM. For `Cc1ccccc1-c1ccc2c(c1)SCc1c-2nc2ccc(F)cc2c1C(=O)O`, the Ki in assay [1] was found to be 27 nM. For the same compound, in assay [2], the IC50 worked out at 0.6 nM. The corresponding values for `Cc1ccc(-c2ccc3c(c2)CCc2c-3nc3ccc(F)cc3c2C(=O)O)cc1` are 40 nM and 28 nM. The corresponding values for `O=C(O)c1c2c(nc3ccc(F)cc13)-c1ccc(-c3ccccc3)cc1CO2` are greater than 204 nM and 380 nM.

Take `O=C(O)c1c2c(nc3ccc(F)cc13)-c1ccc(-c3ccoc3)cc1CC2`: the Ki in assay [1] amounted to 190 nM. The IC50 in assay [2] turned out to be 280 nM. `COc1ccccc1-c1ccc2c(c1)CCc1c-2nc2ccc(F)cc2c1C(=O)O`: the Ki in assay [1] came to 20 nM. Besides, in assay [2], the IC50 was 50 nM. On to `O=C(O)c1c2c(nc3ccc(F)cc13)-c1ccc(-c3ccccc3)nc1CC2`, for which, in assay [1], the Ki worked out at 409 nM. The IC50 in assay [2] was found to be 100 nM.

As to `O=C(O)c1c2c(nc3ccc(F)cc13)-c1ccc(-c3ccc(C(F)(F)F)cc3)cc1CC2`, the Ki in assay [1] was 370 nM. Moreover, the IC50 in assay [2] is 850 nM. The corresponding values for `O=C(O)c1c2c(nc3ccc(F)cc13)-c1ccc(-c3cccc(C(F)(F)F)c3)cc1CC2` are 43 nM and 18 nM. Consider `Cc1ccccc1-c1ccc2c(c1)CSc1c-2nc2ccc(F)cc2c1C(=O)O`, for which the Ki in assay [1] came out at 25 nM. For the same compound, the IC50 in assay [2] was 65 nM. The matching figures for `O=C(O)c1c2c(nc3ccc(F)cc13)-c1ccc(-c3ccccc3C(F)(F)F)cc1CC2`: 40 nM and 50 nM. With `Cc1c(-c2ccc(-c3ccccc3F)cc2)nc2ccc(F)cc2c1C(=O)O` [BREQUINAR SODIUM], the IC50 in assay [2] came out at 15 nM.

Values taken from ChEMBL document CHEMBL1130739 (Bioorg Med Chem Lett, 1998).
